{"source": "patent US10086006B2", "about": "“Method for improving drug treatments in mammals” (priority 2013, dated 2018)", "key": {"[1]": {"test_system": "Escherichia coli (ATCC 25922)", "assay": "Susceptibility test (MIC) of fosfomycin against wild-type Escherichia coli", "assay_type": "cell-based", "experimental": "MIC as used herein refers to the minimum inhibitory concentration (MIC) of an antimicrobial that will inhibit the visible growth of a microorganism after overnight incubation. MICs are important in diagnostic laboratories to confirm resistance of microorganisms to an antimicrobial agent and also to monitor the activity of new antimicrobial agents. A MIC is generally regarded as the most basic laboratory measurement of the activity of an antimicrobial agent against an organism. Clinically, the MICs are used not only to determine the amount of antibiotic that a patient will receive but also the type of antibiotic used, which in turn lowers the opportunity for microbial resistance to specific antimicrobial agents. Applying MIC testing to a number of bacterial strains in the same species provides an estimate of the concentration that inhibits 50% (MIC50) and 90% (MIC90) of bacterial isolates and can indicate shifts in susceptibility of bacterial populations to antibiotics.\n(§1) A dose-fractionation study was conducted utilizing a wild-type strain of Escherichia coli (ATCC 25922; fosfomycin MIC=0.5 mg/L agar; 1 mg/L broth microtiter) in a one-compartment in vitro infection model where the human drug concentration-time profile was simulated over a 24 hour study period.\n(§2) Another reason may be the volume of the micro-titer well (100-200 μL) used in the test method is small, containing 50,000-100,000 CFU. The inherently fosfomycin-resistant subpopulation has a frequency of 1 in 350,000 CFU. Thus, for fosfomycin, the standard susceptibility test method is an insensitive measure of the drug concentration required to inhibit a clinically relevant bacterial inoculum."}, "[2]": {"test_system": "Escherichia coli (ATCC 25922)", "assay": "Dose-fractionation study in a one-compartment in vitro infection model", "assay_type": "cell-based", "experimental": "as §1\nIn such a circumstance, one way to overcome the poor sensitivity of the susceptibility test method is to increase the inoculum size and/or the volume of test system. The one-compartment in vitro infection model is a much more sensitive tool to measure the drug concentration required to inhibit a clinically relevant bacterial inoculum owing to its ability accommodate a higher inoculum and the larger volume (125 mL) of the test system. For this reason, dose-fractionation studies were conducted using a one-compartment in vitro infection model to identify the PK-PD measure most closely associated with efficacy.\n(§3) Note the relatively stronger relationship between the change in bacterial density and AUC0-24:RIC ratio and % T>RIC compared with that for Cmax:RIC ratio, where RIC is the concentration needed to inhibit the fosfomycin-resistant subpopulation."}, "[3]": {"test_system": "Escherichia coli ATCC 25922", "assay": "Neutropenic murine-thigh infection model", "assay_type": "in vivo", "details": "neutropenic mice", "experimental": "In vivo animal studies utilizing the neutropenic murine-thigh model were conducted to confirm key results obtained from the in vitro PK-PD infection models. Initial goals of the studies were to confirm the presence of a clinically-relevant fosfomycin-resistant subpopulation in vivo and to confirm % T>RIC was the PK-PD measure that predicted response.\nIn brief, six-week-old specific-pathogen-free female CD1 (ICR/Swiss) mice were rendered neutropenic by two intra-peritoneal injections of cyclophosphamide, 150 mg/kg of body weight 4 days prior to the study and 100 mg/kg 1 day prior to the study. The challenge isolate was Escherichia coli ATCC 25922 (fosfomycin MIC, 1 mg/L), which was the same strain used in the aforementioned in vitro PK-PD infection model studies. […]\nTo determine which PK-PD measure best described efficacy, the number of bacteria in the thigh at the end of 24 hours of therapy (or earlier for some of the lowest doses) was correlated with 1) the Cmax:MIC ratio, 2) the 24-hour AUC0-24:MIC ratio, 3) the percentage of the dosing interval during that serum concentrations exceed the MIC, and 4) the percentage of the dosing interval during that serum concentrations exceed the RIC for each of the dosage regimens studied. […] The correlation between efficacy and each of the […] PK-PD indices was determined by nonlinear least-squares multivariate regression. […]"}, "[4]": {"test_system": "fosfomycin-resistant E. coli subpopulation (ATCC 25922)", "assay": "Susceptibility (agar MIC, RIC) of the inherently fosfomycin-resistant subpopulation", "assay_type": "cell-based, Escherichia coli", "details": "resistant subpopulation within the standard starting inoculum 5×10^5 CFU/mL", "experimental": "RIC as used herein refers to the resistant inhibitory concentration and identifies the concentrations of antimicrobial required to inhibit the less susceptible or ‘resistant’ mutant subpopulation of organisms. RIC is a new term coined by the inventors of the present invention and is utilized throughout the specification herewith.\nas §2, §3"}}, "note": "Read-outs that look alike come from different tables or passages of the source.", "data": [{"smiles": "C[C@@H]1O[C@@H]1P(=O)(O)O", "note": "[fosfomycin]", "values": [{"measurement": "MIC", "setting": "[1]; ATCC25922, E. coli ATCC 25922 challenge isolate, method not stated, read-out: fosfomycin MIC of the challenge isolate", "value": 1, "unit": "µg/mL"}, {"measurement": "MIC", "setting": "[1]; ATCC25922, agar, wild-type E. coli ATCC 25922, read-out: fosfomycin MIC (agar)", "value": 0.5, "unit": "µg/mL"}, {"measurement": "MIC", "setting": "[1]; ATCC25922, broth microtiter, wild-type E. coli ATCC 25922, read-out: fosfomycin MIC (broth microtiter)", "value": 1, "unit": "µg/mL"}, {"measurement": "relation of bacterial killing to dosing interval", "setting": "[2]; at maximally effective AUC0-24:RIC ratios and free-drug % T>RIC, 24 hour", "value": "as the duration of the dosing interval decreases, the amount of bacterial killing increases"}, {"measurement": "range of the change in bacterial density at 24 hours between regimens", "setting": "[2]; regimens identical in total daily dose and % T>MIC (100%), differing in dosing interval, simulated human concentration-time profile", "value": 8, "unit": "log10"}, {"measurement": "density of the drug-resistant subpopulation in the thighs after 24 hours of therapy", "setting": "[3]; dose range 1.56 to 400 mg/kg every 3 hours", "value": "eliminated at the highest dose-level"}, {"measurement": "PK-PD measure correlated with change in log10 CFU in the thighs after 24 hours of therapy", "setting": "[3]; dosing intervals of 3, 6, 12, and 24 hours", "value": "% T>RIC was well-correlated with change in bacterial density"}, {"measurement": "MIC", "setting": "[4]; Escherichia coli, ATCC25922, agar", "value": "32 to 64", "unit": "µg/mL"}, {"measurement": "agar MIC of the fosfomycin-resistant subpopulation", "setting": "[4]; agar", "value": 32, "unit": "µg/mL"}]}]}
